{"source": "BindingDB's records for patent US11591342", "about": "(Suzhou Sinovent Pharmaceuticals, 2023)", "biological_target": "Autotaxin (Homo sapiens, UniProt Q13822)", "assay": "Bioactivity Assay", "method": "Preparation and Treatment. Stock Solution Preparation. A 10 mM DMSO stock solution was formulated for each compound. A 30 mM DMSO stock solution was formulated for positive control HA130. Preservation: The DMSO stock solutions were stored at room temperature in a desiccator for a short period of time or at −20° C. for a long period of time. Preparation All compounds were serially 3-fold diluted in DMSO from 10 μM to the 10th concentration.A 1000× positive control (10 mM, HA130) and a 1000× negative control (100% DMSO) were prepared. The plates were shaken for 5 min. Preparation of 1× Reaction Buffer:>5× reaction buffer and cold water were mixed well in a volume ratio of 1:4. Preparation of 20 U/mL Choline Oxidase Stock Solution:1 tube of choline oxide in a kit was dissolved in 1× reaction buffer. The aliquots were frozen at −20° C. Preparation of 200 U/mL Horseradish Peroxidase (HRP) Stock Solution:1 tube of HRP in a kit was dissolved in 1 mL of 1× reaction buffer. The aliquots were frozen at −20° C. Preparation of 20 mM Amplex Red Reagent (for Detection) Stock Solution Amplex Red reagent and DMSO were equilibrated at room temperature."}
{"smiles": "CCn1nc2cnc(N3CCN(CC(=O)N4CC(O)C4)CC3)cc2c1N(C)c1nc(-c2ccc(F)cc2)c(C#N)s1", "note": "[US11591342, Compound S-0044]", "values": [{"measurement": "IC50", "result": 5530, "unit": "nM"}]}
{"smiles": "CCn1nc2ncc(N3CCN(CC(=O)N4CC(O)C4)CC3)cc2c1N(C)c1nc(-c2ccc(F)cc2)c(C#N)s1", "note": "[US11591342, Compound S-0043]", "values": [{"measurement": "IC50", "result": 648, "unit": "nM"}]}
{"smiles": "CCc1nn2ccc(N3CCN(CC(=O)N4CC(O)C4)CC3)nc2c1N(C)c1nc(-c2ccc(F)cc2)c(C#N)s1", "note": "[US11591342, Compound S-0041]", "values": [{"measurement": "IC50", "result": 39, "unit": "nM"}]}
